“Also recorded” adds a separate entry of the source. Like-named read-outs stand apart in the source and are kept apart here.
Columns and labels:
HSV-1 strain 17+ = experiment: Virus yield assay, HSV in HFF cells; assay type: cell-based, herpes simplex virus; details: HFF (adult fibroblast) cells, MOI 1, 48 h post-infection
[1] = tested on: HCMV strain Merlin (R1111); experiment: microbe, parasite or virus in culture; assay type: cell-based, human cytomegalovirus; details: for anti-HCMV activity in HFFF cells relative to other cell lines: HFFF cells vs HFF and SGHPL-4 cells; for EC50: read-out: 50% effective dose (EC50), anti-HCMV activity
uninfected cell = tested on: uninfected cell; design: method as in PMID 16492567; details: cited from earlier work
HCMV [2] = details: previous studies; cited from earlier work
HCMV [3] = tested on: HCMV; design: method as in PMID 32919517; details: high doses administered during pregnancy, clinical trial; cited from earlier work
HFF cells = details: uninfected HFF cells, 96 h, high and low cell numbers
[4] = 2,000 mg dose; calculated with ChatGPT3 as Cmax × 1,000/molecular weight from commonly used literature Cmax values; cited from earlier work
HFFF cells = details: uninfected HFFF cells, 96 h, high and low cell numbers
SGHPL-4 cells = details: uninfected SGHPL-4 cells, 96 h, high and low cell numbers, 0.5% FBS
[5] = 2,000 mg/6 h; cited from earlier work
[6] = HFF, HFFF and SGHPL-4 cells, MOI 1, 96 h
[7] = Human betaherpesvirus 5, Fibroblast, 96 h

SMILES	50% effective dose (EC50), anti-HSV activity (HSV-1 strain 17+)	anti-HCMV effects compared to GCV [1, 6]	anti-HCMV activity in HFFF cells relative to other cell lines ([1]; MOI 1, 96 h)	EC50 [1, 7]	effect on uninfected cell viability in vitro (uninfected cell)	difference between GCV and ACV inhibition of HCMV ([1]; found here, HFF cells)	difference between GCV and ACV anti-HCMV effects in vitro (HCMV [2])	inhibition of HCMV foetal infection (HCMV [3])	effect on cell viability and cell division (MTT) (HFF cells)	inhibition of HCMV replication in each cell line ([1]; HFF, HFFF and SGHPL-4 cells, lower drug concentration, MOI 1, 96 h)	EC50 ([1]; Human betaherpesvirus 5, HFF (adult fibroblast) cells, MOI 1, 96 h post-infection, virus yield)	plasma concentration [4]	effect on cell viability and cell division (MTT) (HFFF cells)	effect on cell viability and cell division (MTT) (SGHPL-4 cells)	tolerability in patients [5]
Nc1nc2c(ncn2COCCO)c(=O)[nH]1 [ACV, aciclovir]	well below micromolar concentrations	less anti-HCMV effects compared to GCV	less than in HFF and SGHPL-4 cells	2700 nM											
Nc1nc(O)c2ncn(COC(CO)CO)c2n1 [GCV, ganciclovir]	well below micromolar concentrations			500 nM	little or no effect	approximately fivefold difference	approximately tenfold difference; also recorded: approximately tenfold greater								
CC(C)[C@H](N)C(=O)OCCOCn1cnc2c(=O)[nH]c(N)nc21 [VACV, valaciclovir]		less anti-HCMV effects compared to GCV	less than in HFF and SGHPL-4 cells					notable inhibition of HCMV foetal infection	no obvious effect on cell viability	inhibitor of HCMV in all cell lines	3400 nM	35 to 40 µM	no obvious effect on cell viability	no obvious effect on cell viability	well tolerated by patients, without toxicity
